Data taken from US5789440A, “5,6-dihydropyrone derivatives as protease inhibitors and antiviral agents” (Warner-Lambert Company, priority 1994, dated 1998).
Converted amounts (≈) assume the structure as drawn. Where two headings read alike, the source gives them in different places.

Columns and labels:
[1] = system: Staphylococcus aureus UC-76; experiment: Antibacterial activity, microtitration dilution method; assay type: cell-based; conditions: UC76, read-out: minimum inhibitory concentration (MIC)
From the text: (§1) The compounds of the invention display antibacterial activity when tested by the microtitration dilution method as described in Heifetz, et al., Antimicr. Agents. & Chemoth. 6: 124 (1974) which is incorporated herein by reference.
(§2) By use of the above referenced method, the following minimum inhibitory concentration values (MICs in μg/mL) were obtained for representative compounds of the invention vs. clinically relevant gram positive pathogens which have become highly resistant to conventional therapy in recent years.

[2] = system: Staphylococcus aureus H228; experiment: as above; assay type: cell-based; conditions: read-out: minimum inhibitory concentration (MIC)
From the text: as §1, §2

[3] = system: Streptococcus pneumonia 5V-1; experiment: as above; assay type: cell-based; conditions: Streptococcus pneumoniae, 5V1, read-out: minimum inhibitory concentration (MIC)
From the text: as §1, §2

[4] = system: Enterococcus foecalis MGH2; experiment: as above; assay type: cell-based; conditions: read-out: minimum inhibitory concentration (MIC)
From the text: as §1, §2

[5] = system: Streptococcus pyogenes C203; experiment: as above; assay type: cell-based; conditions: read-out: minimum inhibitory concentration (MIC)
From the text: as §1, §2

[6] = target: T1, HIV-1 Protease (Human immunodeficiency virus type 1 group M subtype B, UniProt P04585); experiment: HIV protease inhibition (undecapeptide substrate cleavage, HPLC); assay type: biochemical; conditions: 37° C., 5 min, 40 μM substrate, pH 4.7, 2% DMSO, read-out: 50% INHIBITION CONCENTRATION
T1 construct: HIV-1 Protease; purchased Bachem Bioscience Inc
Protocol: 1.0 mM dithiothreitol (DTT) was prepared fresh daily in 0.1% polyethylene glycol (mw 8000) 80 mM NaOAc, 160 mM NaCl, 1.0 mM EDTA, and brought to pH 4.7 with HCl.
The enzyme is obtained from Bachem Bioscience Inc. The undiluted enzyme is thawed from -80° C. and diluted 50-fold with DTT buffer. The solution is always kept at 0° C. on ice water and used in the experiment within 20 minutes after thawing.
Substrate III from Bachem Bioscience Inc. is the undecapeptide H-His-Lys-Ala-Arg-Val-Leu-p-Nitrophenylalanine-Glu-Ala-Norleucine-Ser-NH2 (>97% purity). A 200 μM stock solution in DTT buffer is prepared and stored on ice. Substrate solution is prepared fresh daily.
10 mM inhibitor (I) in dimethyl sulfoxide (DMSO) is diluted to 200 μM with DTT buffer. From the 200 μM stock solution is made a 10 μM stock solution with 2% DMSO in DTT buffer. The two inhibitor solutions are used to make final [I] =100, 50, 20, 10, 5, 2, 1, 0.5 and 0 μM with 2% DMSO in DTT buffer in each reaction well (total inhibitor volume of 50 μl).
To each reaction well is added 20 μl of substrate (final concentration of 40 μM), 50 μl of inhibitor (at a concentration such that final dilution will produce the test concentration) and 20 μl of DTT buffer. The reaction plate (96 wells) is incubated at 37° C. for at least 5 minutes.
10 μl of the diluted protease is added to the reaction well while the reaction plate is shaking. Once shaken for 10 seconds, the plate is returned to the heating block at 37° C. (final reaction volume 100 μl.)
The reaction is incubated for 5 minutes at 37° C. The reaction is stopped by placing the reaction plate on the shaker and adding 20 μl of 10% trifluoroacetic acid (TFA) and shaking for 10 seconds. The amount of proteolysis is then determined by separation of noncleaved substrate and two cleaved products with reverse-phase HPLC, while measuring absorbance at 220 nm to determine the relative peak areas of the three components. The relative peak areas are used to calculate % conversion to product as a function of inhibitor concentration. The data are plotted as % Control (the ratio of % conversion in the presence and absence of inhibitor×100) versus inhibitor concentration and fitted with the equation Y=100/1+(X/IC50)^A, where IC50 is the inhibitor concentration at 50% inhibition and A is the slope of the inhibition curve.

[7] = system: HIV1iiib in H9 cells; experiment: Antiviral activity in H9 cells (acute HIV-1 infection, reverse transcriptase assay); assay type: cell-based; conditions: read-out: Concentration for 50% Protection
Protocol: Using the general methods of Pauwels et al., (J. Virol. Methods, 16, 171-185, 1987) and Mann et al. (AIDS Research and Human Retroviruses, 253-255, 1989 (anti-viral assays of active HIV-1 infection were performed in the H9 cell line. Cultures were batch infected in 1 ml of RPM1 1640 media/10% fetal calf serum containing 10^5 infectious doses of HIV1iiib for an effective multiplicity of infection of 0.01. After 2 hours of viral absorption, cells were washed once and palted in 96-wellmicrotiter plates at a density of 10^4 cells per well. Test compounds were added to produce the desired concentration of drug and 0.1% DMSO in a final volume of 200 μl. Uninfected parallel cultures were maintained for XTT cytotoxicity assay at 7 days post infection. Cultures were tested for viral replication by reverse transcriptase assay at 4 and 7 days post infection.

[8] = Human immunodeficiency virus 1, multiplicity of infection 0.01, 0.1% DMSO

Compound	IC50 [6]	other results
Cc1ccc(C(C)C)c(SC2=C(O)CC(CCc3ccc4c(c3)OCO4)(c3ccccc3)OC2=O)c1 (stereo not shown) [Example 133]		MIC [1]: 12.5 µg/mL (≈ 24.9 µM); MIC [2]: 6.25 µg/mL (≈ 12.4 µM); MIC [3]: 12.5 µg/mL (≈ 24.9 µM); MIC [4]: 25 µg/mL (≈ 49.7 µM); MIC [5]: 25 µg/mL (≈ 49.7 µM)
CCCCC1(c2ccccc2)CC(O)=C(SCc2ccccc2)C(=O)O1 (racemic) [Example 29, 6-Butyl-5,6-dihydro-4-hydroxy-6-phenyl-3-[(phenylmethyl)thio]-2H-pyran-2-one]	260 nM	
Cc1cccc(SC2=C(O)CC(c3ccccc3)(c3ccccc3)OC2=O)c1 [Example 70, 5,6-Dihydro-4-hydroxy-3-(3-methylphenylthio)-6,6-diphenyl-2H-pyran-2-one]	110 nM	
CC(C)CCC1(c2ccccc2)CC(O)=C(Sc2ccccc2C(C)C)C(=O)O1 (racemic) [Example 75, 5,6-Dihydro-4-hydroxy-6-(3-methylbutyl)-6-phenyl-3-(2-isopropyl-phenylthio)-2H-pyran-2-one]	28 nM	
O=C1OC(CCc2ccccc2)(c2ccccc2)CC(O)=C1Sc1ccccc1 (racemic) [Example 71, 5,6-Dihydro-4-hydroxy-6-phenyl-6-(2-phenylethyl)-3-phenylthio-2H-pyran-2-one]	100 nM	
Cc1ccc(C)c(CSC2=C(O)CC(CCc3ccccc3)(c3ccccc3)OC2=O)c1 (racemic) [Example 90, 5,6-Dihydro-4-hydroxy-3-[(2,5-dimethylphenyl)methylthio]-6-phenyl-6-(2-phenylethyl)-2H-pyran-2-one]	140 nM	
CC(C)CCC1(c2ccccc2)CC(O)=C(SCc2ccccc2)C(=O)O1 (racemic) [Example 35, 5,6-Dihydro-4-hydroxy-6-(3-methylbutyl)-6-phenyl-3-[(phenylmethyl)thio]-2H-pyran-2-one]	120 nM	
O=C1OC(CCc2ccccc2)(c2ccccc2)CC(O)=C1SCCc1ccccc1 (racemic) [Example 40, 5,6-Dihydro-4-hydroxy-6-phenyl-6-(2-phenylethyl)-3-[(2-phenylethyl)thio]-2H-pyran-2-one]	60 nM	
5,6-Dihydro-4-hydroxy-3-[(3-methoxyphenyl)methyl]-6-phenyl-6-(2-phenylethyl)-2H-pyran-2-one [Example 119]	97 nM	EC50 ([7]; multiplicity of infection 0.01, 0.1% DMSO): 59000 nM
O=C1OC(c2ccccc2)CC(O)=C1SCCc1ccccc1 (racemic) [Example 2, 5,6-Dihydro-4-hydroxy-6-phenyl-3-[(2-phenylethyl)thio]-2H-pyran-2-one]	1900 nM	
O=C(CCCC1(c2ccccc2)CC(O)=C(SCc2ccccc2)C(=O)O1)NCc1ccccc1 (racemic) [Example 61, N-Benzyl-4-(3,6-dihydro-4-hydroxy-6-oxo-2-phenyl-5-[(phenylmethyl)thio]-2H-pyran-2-yl)butyramide]	220 nM	
CC(C)CCC1(c2ccccc2)CC(O)=C(SCc2ccccc2Cl)C(=O)O1 (racemic) [Example 94, 3-(2-Chlorophenylmethylthio)-5,6-dihydro-4-hydroxy-6-(3-methylbutyl)-6-phenyl-2H-pyran-2-one]	220 nM	EC50 [7, 8]: 29000 nM
CC(C)CCC1(c2ccccc2)CC(O)=C(SCc2ccccc2-c2ccccc2)C(=O)O1 (racemic) [Example 95, 3-(Biphen-2-ylmethylthio)-5,6-dihydro-4-hydroxy-6-(3-methylbutyl)-6-phenyl-2H-pyran-2-one]	1090 nM	EC50 [7, 8]: 39000 nM
O=C1OC(c2ccccc2)(c2ccccc2)CC(O)=C1CCCc1ccccc1 [Example 66, 5,6-Dihydro-4-hydroxy-6,6-diphenyl-3-(3-phenylpropyl)-2H-pyran-2-one]	390 nM	
O=C1OC(CC2CCCC2)(c2ccccc2)CC(O)=C1SCc1ccccc1 (racemic) [Example 50, 6-Cyclopentylmethyl-5,6-dihydro-4-hydroxy-6-phenyl-3-[(phenylmethyl)thio]-2H-pyran-2-one]	88 nM	
O=C1OC(c2ccccc2)(c2ccccc2)CC(O)=C1SCc1ccccc1 [Example 37, 5,6-Dihydro-4-hydroxy-6,6-diphenyl-3-[(phenylmethyl)thio]-2H-pyran-2-one]	260 nM	
O=C1OC(CCc2ccc(Cl)c(Cl)c2)(c2ccccc2)CC(O)=C1SCc1ccccc1 (racemic) [Example 44, 6-[2-(3,4-Dichlorophenyl)ethyl]-5,6-dihydro-4-hydroxy-6-phenyl-3-[(phenylmethyl)thio]-2H-pyran-2-one]	320 nM	
O=C1OC2(CCCc3ccccc32)CC(O)=C1SCc1ccccc1 (racemic) [Example 52, 3,4-Dihydro-4'-hydroxy-5'-[(phenylmethyl)thio]-spiro[naphthalene-1(2H),2'-[2H]pyran]-6'(3'H)-one]	2000 nM	
O=C1OC(c2ccccc2)(c2ccncc2)CC(O)=C1SCCc1ccccc1 (racemic) [Example 57, 5,6-Dihydro-4-hydroxy-6-phenyl-3-[(2-phenylethyl)thio]-6-pyridin-4-yl-2H-pyran-2-one]	650 nM	
O=C1OC(CCc2ccccc2)(c2ccccc2)CC(O)=C1SCc1ccccc1-c1ccccc1 (racemic) [Example 92, 3-(Biphenyl-2-ylmethylthio)-5,6-dihydro-4-hydroxy-6-phenyl-6-(2-phenylethyl)-2H-pyran-2-one]	270 nM	
O=C1OC(CCc2ccccc2)(c2ccccc2)CC(O)=C1SCc1ccccc1 (racemic) [Example 39, 5,6-Dihydro-4-hydroxy-6-phenyl-6-(2-phenylethyl)-3-[(phenylmethyl)thio]-2H-pyran-2-one]	50 nM	
CCCCC1(c2ccc(-c3ccccc3)cc2)CC(O)=C(SCCc2ccccc2)C(=O)O1 (racemic) [Example 22, 6-[1,1'-Biphenyl]-4-yl-6-butyl-5,6-dihydro-4-hydroxy-3-[(2-phenylethyl)thio]-2H-pyran-2-one]	1100 nM	
O=C1OC(c2ccc(OCc3ccccc3)cc2)CC(O)=C1SCCc1ccccc1 (stereo not shown) [Example 14]	2500 nM	
O=C1OC(CCc2ccccc2)(c2ccccc2)CC(O)=C1Cc1ccccc1C(F)(F)F (stereo not shown) [Example 114, 5,6-Dihydro-4-hydroxy-6-phenyl-6-(2-phenylethyl)-3-[(2-trifluoromethylphenyl)methyl]-2H-pyran-2-one]	79 nM	EC50 [7, 8]: 26000 nM
O=C(O)CCCCC1(c2ccccc2)CC(O)=C(SCCc2ccccc2)C(=O)O1 (racemic) [Example 56, 5-(3,6-Dihydro-4-hydroxy-6-oxo-2-phenyl-5-[(2-phenylethyl)thio]-2H-pyran-2-yl)pentanoic acid]	5 nM	
CC(C)CC1(c2ccccc2)CC(O)=C(SCc2ccccc2)C(=O)O1 (racemic) [Example 5, 5,6-Dihydro-4-hydroxy-6-(2-methylpropyl)-6-phenyl-3-[(phenylmethyl)thio]-2H-pyran-2-one]	400 nM	
